Experimental data reported in USRE42890E1, “Furazanobenzimidazoles” (Basilea Pharmaceutica AG, priority 2003, dated 2011).
Where two headings read alike, the source gives them in different places.

How the values were obtained:
[1] = system: Jily; experiment: MTS proliferation assay, Jily; assay type: cell-based; settings: 72 h incubation, read-out: MTS proliferation assay IC 50 Jily
Summary of the method: (§1)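 Cells seeded 24 h before treatment in RPMI-1640 with 5% or 10% FCS, then exposed 72 h at 37 °C, 7.5% CO2, to compound at final 10, 3, 1 and 0.3 μM. Viability by MTS, 3 h further incubation, absorbance 492 nm.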

[2] = system: adherent cells or suspension cells; experiment: Hoechst 33342 nuclear staining (fraction of apoptotic nuclei); assay type: cell-based; design: key: 0 relating to no activity; 1 relating to weak activity comprising less than 70% of the cells; score 2 relating to strong activity comprising more than 70% of the cells
[3] = system: HT1080; experiment: MTS proliferation assay, HT1080; assay type: cell-based, human; settings: HT1080, 72 h incubation, read-out: MTS proliferation assay IC 50 HT1080
Summary of the method: (§2)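 Cells seeded 24 h before treatment in RPMI-1640 with 5% or 10% FCS. Compounds added at 10, 3, 1 and 0.3 μM final and incubated 72 h at 37 °C, 7.5% CO2. MTS reagent then added for 3 h, absorbance read at 492 nm.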

[4] = system: MRC5; experiment: MTS proliferation assay, MRC5; assay type: cell-based; settings: MRC5, 72 h incubation, read-out: MTS proliferation assay IC 50 MRC5
Summary of the method: as §1

[5] = system: HeLa; experiment: MTS proliferation assay, HeLa; assay type: cell-based, human; settings: 72 h incubation, read-out: MTS proliferation assay IC 50 HeLa
Summary of the method: as §2

[6] = system: Jurkat; experiment: MTS proliferation assay, Jurkat; assay type: cell-based, human; settings: 72 h incubation, read-out: MTS proliferation assay IC 50 Jurkat
Summary of the method: as §2

| IC50 ([3]; Homo sapiens, HT-1080) | Compound | IC50 [1] | Hoechst 33342 nuclear staining score ([2]; H460, conc 0.01 μm) | Hoechst 33342 nuclear staining score ([2]; H460, conc 0.1 μm) | Hoechst 33342 nuclear staining score ([2]; H460, conc 1 μm) | Hoechst 33342 nuclear staining score ([2]; HeLa, conc 0.01 μm) | Hoechst 33342 nuclear staining score ([2]; HeLa, conc 0.1 μm) | Hoechst 33342 nuclear staining score ([2]; HeLa, conc 1 μm) | Hoechst 33342 nuclear staining score ([2]; Jily, conc 0.01 μm) | Hoechst 33342 nuclear staining score ([2]; Jily, conc 0.1 μm) | Hoechst 33342 nuclear staining score ([2]; Jily, conc 1 μm) | Hoechst 33342 nuclear staining score ([2]; Jurkat, conc 0.01 μm) | Hoechst 33342 nuclear staining score ([2]; Jurkat, conc 0.1 μm) | Hoechst 33342 nuclear staining score ([2]; Jurkat, conc 1 μm) | Hoechst 33342 nuclear staining score ([2]; MRC5, conc 0.01 μm) | Hoechst 33342 nuclear staining score ([2]; MRC5, conc 0.1 μm) | Hoechst 33342 nuclear staining score ([2]; MRC5, conc 1 μm) | Hoechst 33342 nuclear staining score ([2]; PBLs, conc 0.01 μm) | Hoechst 33342 nuclear staining score ([2]; PBLs, conc 0.1 μm) | Hoechst 33342 nuclear staining score ([2]; PBLs, conc 1 μm) | other results |
| --- | --- | --- | --- | --- | --- | --- | --- | --- | --- | --- | --- | --- | --- | --- | --- | --- | --- | --- | --- | --- | --- |
| 0.1 to 1 µM | Nc1ccc(C(=O)Cn2c(-c3nonc3NCCC(=O)O)nc3ccccc32)cc1 [Example 13, 4-[1-(4-Aminophenacyl)-1H-benzimidazol-2-yl]-furazan-3-yl-N-(2-carboxyethyl)-amine] | 0.1 to 1 µM | 0 | 0 | 2 (score 2 relating to strong activity comprising more than 70% of the cells) | 0 | 0 | 2 (score 2 relating to strong activity comprising more than 70% of the cells) | 0 | 0 | 2 (score 2 relating to strong activity comprising more than 70% of the cells) | 0 | 0 | 2 (score 2 relating to strong activity comprising more than 70% of the cells) | 0 | 0 | 2 (score 2 relating to strong activity comprising more than 70% of the cells) | 0 | 0 | 0 | IC50 ([4]; Homo sapiens): 0.1 to 1 µM; IC50 ([5]; Homo sapiens): 0.1 to 1 µM; IC50 ([6]; Homo sapiens): 0.1 to 1 µM |
| 0.01 to 0.1 µM | Nc1cc(C(=O)Cn2c(-c3nonc3N)nc3ccccc32)ccc1Cl [Example 14, 4-[1-(3-Amino-4-chlorophenacyl)-1H-benzimidazol-2-yl]-furazan-3-ylamine] | 0.01 to 0.1 µM | 0 | 2 (score 2 relating to strong activity comprising more than 70% of the cells) | 2 (score 2 relating to strong activity comprising more than 70% of the cells) | 0 | 1 (1 relating to weak activity comprising less than 70% of the cells) | 2 (score 2 relating to strong activity comprising more than 70% of the cells) | 0 | 2 (score 2 relating to strong activity comprising more than 70% of the cells) | 2 (score 2 relating to strong activity comprising more than 70% of the cells) | 0 | 2 (score 2 relating to strong activity comprising more than 70% of the cells) | 2 (score 2 relating to strong activity comprising more than 70% of the cells) | 0 | 1 (1 relating to weak activity comprising less than 70% of the cells) | 2 (score 2 relating to strong activity comprising more than 70% of the cells) | 0 | 0 | 0 | IC50 ([4]; Homo sapiens): 0.01 to 0.1 µM; IC50 ([5]; Homo sapiens): 0.01 to 0.1 µM; IC50 ([6]; Homo sapiens): 0.01 to 0.1 µM |
| < 0.01 µM | COCOc1ccc(C(=O)Cn2c(-c3nonc3N)nc3ccccc32)cc1OC [Example 15, 4-[1-(3-Methoxy-4-methoxymethoxy-phenacyl)-1H-benzimidazol-2-yl]-furazan-3-ylamine] | < 0.01 µM | 2 (score 2 relating to strong activity comprising more than 70% of the cells) | 2 (score 2 relating to strong activity comprising more than 70% of the cells) | 2 (score 2 relating to strong activity comprising more than 70% of the cells) | 1 (1 relating to weak activity comprising less than 70% of the cells) | 2 (score 2 relating to strong activity comprising more than 70% of the cells) | 2 (score 2 relating to strong activity comprising more than 70% of the cells) | 2 (score 2 relating to strong activity comprising more than 70% of the cells) | 2 (score 2 relating to strong activity comprising more than 70% of the cells) | 2 (score 2 relating to strong activity comprising more than 70% of the cells) | 2 (score 2 relating to strong activity comprising more than 70% of the cells) | 2 (score 2 relating to strong activity comprising more than 70% of the cells) | 2 (score 2 relating to strong activity comprising more than 70% of the cells) | 0 | 1 (1 relating to weak activity comprising less than 70% of the cells) | 2 (score 2 relating to strong activity comprising more than 70% of the cells) | 0 | 0 | 0 | IC50 ([4]; Homo sapiens): < 0.01 µM; IC50 ([5]; Homo sapiens): 0.01 to 0.1 µM; IC50 ([6]; Homo sapiens): < 0.01 µM |
|  | Nc1nonc1-c1nc2ccccc2n1CC(=O)c1ccc(Cl)cc1Cl [Example 31] | 0.1 to 1 µM | 0 | 0 | 0 | 0 | 0 | 0 |  |  |  | 0 | 0 | 1 (1 relating to weak activity comprising less than 70% of the cells) | 0 | 0 | 0 | 0 | 0 | 0 | IC50 [3]: > 1 µM; IC50 [4]: 0.1 to 1 µM; IC50 [5]: 0.1 to 1 µM; IC50 [6]: 0.1 to 1 µM |
|  | Nc1nonc1-c1nc2ccccc2n1CC(=O)c1cccc(Cl)c1 [Example 35] | 0.01 to 0.1 µM | 0 | 0 | 2 (score 2 relating to strong activity comprising more than 70% of the cells) | 0 | 0 | 2 (score 2 relating to strong activity comprising more than 70% of the cells) | 0 | 1 (1 relating to weak activity comprising less than 70% of the cells) | 2 (score 2 relating to strong activity comprising more than 70% of the cells) | 0 | 2 (score 2 relating to strong activity comprising more than 70% of the cells) | 2 (score 2 relating to strong activity comprising more than 70% of the cells) | 0 | 2 (score 2 relating to strong activity comprising more than 70% of the cells) | 2 (score 2 relating to strong activity comprising more than 70% of the cells) | 0 | 0 | 0 | IC50 [3]: 0.1 to 1 µM; IC50 [4]: 0.1 to 1 µM; IC50 [5]: 0.01 to 0.1 µM; IC50 [6]: 0.01 to 0.1 µM |
|  | Nc1nonc1-c1nc2ccccc2n1CC(=O)c1cccc2ccccc12 [Example 41] | 0.1 to 1 µM |  |  |  | 0 | 0 | 2 (score 2 relating to strong activity comprising more than 70% of the cells) | 0 | 0 | 2 (score 2 relating to strong activity comprising more than 70% of the cells) | 0 | 0 | 2 (score 2 relating to strong activity comprising more than 70% of the cells) | 0 | 0 | 0 | 0 | 0 | 1 (1 relating to weak activity comprising less than 70% of the cells) | IC50 [3]: 0.1 to 1 µM; IC50 [4]: 0.1 to 1 µM; IC50 [5]: 0.1 to 1 µM; IC50 [6]: 0.1 to 1 µM |
